US20170080049A1, “MEDICINE AGAINST GROWTH FAILURE INDUCED BY ADMINISTRATION OF STEROID” (DAIICHI SANKYO COMPANY, LIMITED, priority 2014, published 2017)

Legend:
Type in all cases: in vivo
male Crl: CD (SD) rat = assay: Preparation of dexamethasone-induced growth failure model rat (Example 1); details: continuous s.c. dexamethasone 0.5 or 1 mg/mL, 28 days
Method: Osmotic pumps (MINI-OSMOTIC PUMP Model 2004, available from DURECT CORPORATION, flow rate: 0.25 μL/hr, for 28 days) were charged with dexamethasone (dexamethasone injection “KS”, available from Kyoritsuseiyaku Corporation) having a concentration of 0.5 mg/mL (Group 2) or 1 mg/mL (Group 3), and one osmotic pump was embedded in the hypoderm of the back of each 7-week-old male Crl: CD (SD) rat (5 animals/group, a total of 10 animals). Additionally, in a control group (Group 1, 5 animals), one osmotic pump (the same as above) charged with saline was embedded in the hypoderm of the back of each animal. Then the animals were fed for 28 days, and their bodyweight was measured twice or three times a week. On the final day, after blood collection under isoflurane anesthesia followed by immediate euthanasia, the right femur was extracted, and the length was measured. Plasma was separated from the collected blood, and cholesterol concentration was determined by using cholesterol E-Test Wako (available from Wako Pure Chemical Industries, Ltd.), and the plasma corticosterone concentration was determined by using a Corticosterone, ELISA Kit, AssayMax (96 well) (EC3001-1, available from ASSAYPRO LLC.).

[1] = test system: dexamethasone-induced growth failure, male Crlj:WI (Wistar) rat; details: dexamethasone 1 mg/mL pump alone or combined with CNP derivative (A) 20 mg/mL pump, continuous s.c. 28 days, mean ± SD, n=6
Method: Osmotic pumps (MINI-OSMOTIC PUMP Model 2004, available from DURECT CORPORATION, flow rate: 0.25 μL/hr, for 28 days) were charged with a 1 mg/mL solution of dexamethasone (dexamethasone injection “KS”, available from Kyoritsuseiyaku Corporation, Group 2 and Group 3) or saline in a control group (Group 1), and one osmotic pump was embedded in the hypoderm of the back of each 7-week-old male Crlj:WI (Wistar) rat. At the same time, one osmotic pump (the same as described above) charged with a 20 mg/mL solution of CNP derivative (A) in Group 3, or charged with Medium 1 (0.03 mol/L acetate buffer (pH 4.0)/1% benzyl alcohol/10% sucrose) in Group 1 and Group 2 was embedded in the hypoderm of the back simultaneously with the pump containing dexamethasone or saline. Then the animals were fed for 28 days, and the body weight, the body length (length from the top of the nose to the anus) and the tail length were measured on the final day, and after collecting the blood from the abdominal aorta under isoflurane anesthesia, the right femur and major organs (spleen, thymus, liver, heart and lung) were collected. Regarding the femur, the bone length and width were measured by using a caliper, and the organ weights were measured. Concentrations of cholesterol and IGF-1 in plasma prepared from the blood, were determined by using cholesterol E-Test Wako (available from Wako Pure Chemical Industries, Ltd.) and Quantikine® ELISA Mouse/Rat IGF-I Immunoassay (MG100, available from R&D Systems). [Result]

[2] = test system: steroid-induced growth failure, male Crlj:WI (Wistar) rat; assay: Simultaneous combined administration test of various steroids and CNP derivative (A) in rats (Example 5)
Method: 0.3 mg/mL solution of dexamethasone (dexamethasone injection “KS”, available from Kyoritsuseiyaku Corporation diluted with saline), prednisolone succinate suspended in 0.1% polysorbate-containing brine (available from Wako Pure Chemical Industries, Ltd., concentration of 5 mg/mL as prednisolone), or betamethasone dipropionate suspended in 0.1% polysorbate-containing brine (available from Wako Pure Chemical Industries, Ltd., concentration of 0.3 mg/mL as betamethasone) was administered to the hypoderm of the back of a 4-week-old male Crlj:WI (Wistar) rat (ten animals for each set of substances) in a volume of 1 mL/kg once a day for 28 days. No substance was administered to the control group (5 animals, Group 1). At the same time, for five of ten animals in each set (Group 2, Group 4, Group 6) a medium (0.03 mol/L acetate buffer (pH 4.0)/1% benzyl alcohol/10% sucrose) and for the remaining five animals (Group 3, Group 5, Group 7) the medium and a 1 mg/mL solution of CNP derivative (A) were administered in combination in the hypoderm of the back in a volume of 1 mL/kg once a day for 28 days. After measuring the body weight, the body length and the tail length under isoflurane anesthesia on the day after the final day of administration, blood was collected from the abdominal aorta and the animal was caused to die, the right femur was extracted and the femur length was measured.

[3] = test system: rat growth failure induced by dexamethasone; assay: Action comparing study between CNP derivative (A) and human growth hormone on rat growth failure induced by dexamethasone (Example 6); details: 2 mL/kg s.c. once a day 28 days, n=4 or 5
Method: Osmotic pumps (MINI-OSMOTIC PUMP Model 2004, available from DURECT CORPORATION, flow rate: 0.25 μL/hr, for 28 days) were charged with a 0.67 mg/mL solution of dexamethasone (dexamethasone injection “KS”, available from Kyoritsuseiyaku Corporation), and one osmotic pump was embedded in the hypoderm of the back of each 4-week-old male Crlj:WI (Wistar) rat (5 animals/group, Group 2 to Group 4, total of 15 animals). For Group 3, a 1 mg/mL solution of CNP derivative (A) (medium: 0.03 mol/L acetate buffer (pH 4.0)/1% benzyl alcohol/10% sucrose), and for Group 4, a 1 mg/mL solution of human-type growth hormone preparation (somatropin BS subcutaneous injection 10 mg “SANDOZ”) diluted with a phosphate buffer was administered to the hypoderm of the back of five rats, respectively, in a volume of 2 mL/kg once a day for 28 days. No substance was administered to the normal control group (5 animals, Group 1). On the final day, after measuring the body weight, the body length and the tail length, the blood was collected from the abdominal aorta and the animal was caused to die under isoflurane anesthesia, the left femur was extracted and the bone length was measured, and then a histopathological specimen of the epiphyseal region was prepared.

[4] = dexamethasone 0.3 mg/mL, 1 mL/kg s.c. once a day 28 days, + medium or + CNP derivative (A) 1 mg/kg, n=5
[5] = dexamethasone 0.67 mg/mL pump alone or with CNP derivative (A) or human-type growth hormone 1 mg/mL

SMILES: C[C@@H]1C[C@H]2[C@@H]3CCC4=CC(=O)C=C[C@]4(C)[C@@]3(F)[C@@H](O)C[C@]2(C)[C@@]1(O)C(=O)CO [Dexamethasone, dexamethasone]
- body weight (in words) (male Crl: CD (SD) rat; SD rat (FIG. 1)): decreased dose-dependently
- femur length (in words) (male Crl: CD (SD) rat; SD rat (FIG. 2)): shortened dose-dependently
- Body length at final day ([1]; 7-week-old male Wistar rat): 219 ± 5 mm
- Tail length at final day ([1]; 7-week-old male Wistar rat): 195 ± 6 mm
- Right femur Length ([1]; male Wistar rat): 35.6 ± 0.6 mm
- Right femur Wide (epiphyseal region, maximum width) ([1]; male Wistar rat): 7.7 ± 0.4 ^NS mm
- Body length at dissection [2, 4]: 177 ± 4 mm
- Body length, variation from preadministration value (Δ value) [2, 4]: (27 ± 5) mm
- Body weight, variation from preadministration value (Δ value) [2, 4]: (69 ± 5) g
- Right femur length at dissection [2, 4]: 28.3 ± 0.4 mm
- Tail length at dissection [2, 4]: 174 ± 4 mm
- Tail length, variation from preadministration value (Δ value) [2, 4]: (47 ± 7) mm
- Body weight at dissection ([2]; dexamethasone 0.3 mg/mL, 1 mL/kg s.c. once a day 28 days, + medium or + CNP derivative (A) 1 mg/mL, 1 mL/kg s.c. once a day, 4-week-old male Wistar rat, mean ± SD, n=5): 176 ± 5 g
- growth failure in rats by repeated administration of the steroid for 28 days (in words) ([2]; rat, in vivo, sc): induce growth failure
- Body weight at dissection ([3]; dexamethasone 0.67 mg/mL pump 28 days alone or with CNP derivative (A) or human-type growth hormone 1 mg/mL, 4-week-old male Wistar rat, mean ± SD): 245 ± 12 g
- Body length at dissection [3, 5]: 199 ± 4 mm
- Body length, variation from pre-administration value (Δ value) [3, 5]: (46.8 ± 4.7) mm
- Body weight, variation from pre-administration value (Δ value) [3, 5]: (139 ± 13) g
- Left femur length at dissection [3, 5]: 31.3 ± 0.2 mm
- Tail length at dissection [3, 5]: 197 ± 5 mm
- Tail length, variation from pre-administration value (Δ value) [3, 5]: (65.0 ± 4.9) mm
